From US20220338473A1, “USE OF BENZYL ALCOHOL AS A HERBICIDE” (INNOVI, priority 2019, published 2022)

How the values were obtained:
Assay type in all cases: in vivo
[1] = system: Grass; test: Systemic application through contact with the above-ground parts (half of plant treated); settings: potted, only one half sprayed, 16 g benzyl alcohol (800 L/Ha) in 20 g total (1000 L/Ha)
Experimental: (§1) Assays were carried out on different plants by treatment on a fraction of the above-ground parts.
(§2) The assays were carried out on potted plants.
(§3) The systemic action was evaluated on several types of plants by treatment on a fraction of its above-ground parts.
(§4) The application of the product is carried out with a trigger spray bottle which makes it possible to spray 1 g of product per spraying, as microdroplets.
(§5) The treated plants are sprinkled on only one half, with different quantities of water comprising different quantities of pure benzyl alcohol (PanReac AppliChem—ITW Reagents). The untreated (control) plants are sprinkled with the same total quantity, but of water only.
(§6) The collapsing of the plant, the colour intensity and the diameter of the plant were measured as indicated in Example 1. The systemic effectiveness time was also measured in the following manner: • Systemic effectiveness time: 50% of the plant is initially treated with the product. The time necessary to see the first effects (systemically) appear on the part not treated (systemically) is determined.

[2] = system: Horned pansy; test: as above; settings: potted, only one half sprayed, 0.1 g benzyl alcohol (5 L/Ha) in 12 g total (600 L/Ha)
Experimental: as §1, §2, §3, §4, §5, §6

[3] = system: Carnation; test: as above; settings: potted, only one half sprayed, 4 g benzyl alcohol (200 L/Ha) in 4 g total (200 L/Ha)
Experimental: as §1, §2, §3, §4, §5, §6

[4] = system: White petunia; test: as above; settings: potted, only one half sprayed, 10 g benzyl alcohol (500 L/Ha) in 16 g total (800 L/Ha)
Experimental: as §1, §2, §3, §4, §5, §6

[5] = system: Barley seeds; test: Preventative activity (anti-germination), seeds on agar in Petri dish; settings: 0.35 g sprayed (benzyl alcohol pure, 700 L/Ha; glyphosate diluted at 0.5%)
Experimental: (§7) The assays were carried out on seeds sown on a Petri dish with respectively a control mode, an assay with benzyl alcohol and an assay with glyphosate herbicide (Gallup® super 360, Barclay).
(§8) The application of the product is carried out with a trigger spray bottle which makes it possible to spray 0.35 g of product per spraying, as microdroplets.
(§9) Seeds are placed on an agar gel in Petri dishes. 16 barley seeds, 24 rapeseed seeds, 18 wheat seeds, 10 maize seeds, 10 soybean seeds are positioned for each test.
(§10) The seeds are sprinkled either with 0.35 g water (equivalent 700 L/Ha) including 0.35 g pure benzyl alcohol (PanReac AppliChem—ITW Reagents) (equivalent 700 L/Ha pure benzyl alcohol), or with 0.35 g water for the control, or with 0.35 g glyphosate diluted at 0.5% for the glyphosate test.
(§11) The plants are observed at 0 and 11 days. The percentage of germination is the percentage of germinated seeds evaluated after 11 days.

[6] = system: Rapeseed seeds; test: as above; settings: 0.35 g sprayed (benzyl alcohol pure, 700 L/Ha; glyphosate diluted at 0.5%)
Experimental: as §7, §8, §9, §10, §11

[7] = system: Soybean seeds; test: as above; settings: 0.35 g sprayed (benzyl alcohol pure, 700 L/Ha; glyphosate diluted at 0.5%)
Experimental: as §7, §8, §9, §10, §11

[8] = system: Wheat seeds; test: as above; settings: 0.35 g sprayed (benzyl alcohol pure, 700 L/Ha; glyphosate diluted at 0.5%)
Experimental: as §7, §8, §9, §10, §11

[9] = system: Maize seeds; test: as above; settings: 0.35 g sprayed (benzyl alcohol pure, 700 L/Ha; glyphosate diluted at 0.5%)
Experimental: as §7, §8, §9, §10, §11

Structure (SMILES): OCc1ccccc1 [benzyl alcohol]
- A: systemic effectiveness time (whole plant affected) [1]: at 96 h
- B: collapsing (score and time): time to pass from score 5 (T0) to score 1 [1]: 144 h
- C: colour intensity (score and time): time to pass from score 5 (T0) to score 1 [1]: 120 h
- D: diameter (score and time): time to pass from score 5 (T0) to score 1 [1]: 168 h
- A: systemic effectiveness time (whole plant affected) [2]: at 120 h
- B: collapsing (score and time): time to pass from score 5 (T0) to score 1 [2]: 168 h
- C: colour intensity (score and time): time to pass from score 5 (T0) to score 1 [2]: 144 h
- D: diameter (score and time): time to pass from score 5 (T0) to score 1 [2]: 168 h
- A: systemic effectiveness time (whole plant affected) [3]: at 72 h
- B: collapsing (score and time): time to pass from score 5 (T0) to score 1 [3]: 86 h
- C: colour intensity (score and time): time to pass from score 5 (T0) to score 1 [3]: 96 h
- D: diameter (score and time): time to pass from score 5 (T0) to score 1 [3]: 120 h
- A: systemic effectiveness time (whole plant affected) [4]: at 24 h
- B: collapsing (score and time): time to pass from score 5 (T0) to score 1 [4]: 48 h
- C: colour intensity (score and time): time to pass from score 5 (T0) to score 1 [4]: 48 h
- D: diameter (score and time): time to pass from score 5 (T0) to score 1 [4]: 48 h
- Percentage of germination at 11 days [5]: 0%
- Percentage of germination at 11 days [6]: 0%
- Percentage of germination at 11 days [7]: 0%
- Percentage of germination at 11 days [8]: 0%
- Percentage of germination at 11 days [9]: 0%
